This note sets out measurements from ChEMBL document CHEMBL4706508, “Discovery of first-in-class multi-target adenosine A receptor antagonists-carbonic anhydrase IX and XII inhibitors. 8-Amino-6-aryl-2-phenyl-1,2,4-triazolo [4,3-a]pyrazin-3-one derivatives as new potential antitumor agents” (Eur J Med Chem, 2020).

The target in assay [1] is T1, Adenosine receptor A3 (Homo sapiens, UniProt P0DMS8).
T1 sequence (P0DMS8 whole entry): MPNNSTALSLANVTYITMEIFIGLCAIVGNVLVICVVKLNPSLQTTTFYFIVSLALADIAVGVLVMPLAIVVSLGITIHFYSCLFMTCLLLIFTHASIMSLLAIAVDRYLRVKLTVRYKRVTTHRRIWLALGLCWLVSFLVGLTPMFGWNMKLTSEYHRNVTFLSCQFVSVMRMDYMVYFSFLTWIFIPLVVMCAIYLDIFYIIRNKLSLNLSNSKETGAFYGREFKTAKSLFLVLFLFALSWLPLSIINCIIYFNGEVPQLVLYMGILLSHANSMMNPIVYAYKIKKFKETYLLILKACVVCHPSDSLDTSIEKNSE
The assay can be described thus: Displacement of [3H]-HEMADO from human A3 receptor stably expressed in CHO cell membranes by radioligand competitive binding assay. Details: species or system Cell membrane.

Assay [2] concerns the target Carbonic anhydrase 2 (Homo sapiens, UniProt P00918). The assay can be described thus: Inhibition of human CA2 incubated for 15 mins by stopped- flow CO2 hydrase assay method.
The target of assay [3] is Carbonic anhydrase 12 (Homo sapiens, UniProt O43570). Briefly: Inhibition of human CA12 incubated for 15 mins by stopped- flow CO2 hydrase assay method.
Carbonic anhydrase 12, sequence (O43570 whole entry): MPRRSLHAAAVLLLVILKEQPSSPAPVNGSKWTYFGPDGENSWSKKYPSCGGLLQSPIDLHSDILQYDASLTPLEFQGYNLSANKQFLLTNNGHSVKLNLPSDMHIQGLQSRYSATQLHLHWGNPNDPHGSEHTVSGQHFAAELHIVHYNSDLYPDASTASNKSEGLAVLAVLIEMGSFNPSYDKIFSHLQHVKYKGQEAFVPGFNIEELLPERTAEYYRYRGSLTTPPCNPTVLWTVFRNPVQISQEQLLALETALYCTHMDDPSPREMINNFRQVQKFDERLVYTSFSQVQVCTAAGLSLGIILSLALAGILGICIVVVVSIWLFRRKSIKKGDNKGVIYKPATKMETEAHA
In assay [4] the target is Carbonic anhydrase 9 (Homo sapiens, UniProt Q16790). The assay can be described thus: Inhibition of human CA9 incubated for 15 mins by stopped- flow CO2 hydrase assay method.
For assay [5], the target named is Adenosine receptor A2a (Homo sapiens, UniProt P29274). The assay can be described thus: Displacement of [3H]-NECA from human A2A receptor stably expressed in CHO cell membranes by radioligand competitive binding assay. Further details: species or system Cell membrane.
Adenosine receptor A2a, sequence (P29274 whole entry): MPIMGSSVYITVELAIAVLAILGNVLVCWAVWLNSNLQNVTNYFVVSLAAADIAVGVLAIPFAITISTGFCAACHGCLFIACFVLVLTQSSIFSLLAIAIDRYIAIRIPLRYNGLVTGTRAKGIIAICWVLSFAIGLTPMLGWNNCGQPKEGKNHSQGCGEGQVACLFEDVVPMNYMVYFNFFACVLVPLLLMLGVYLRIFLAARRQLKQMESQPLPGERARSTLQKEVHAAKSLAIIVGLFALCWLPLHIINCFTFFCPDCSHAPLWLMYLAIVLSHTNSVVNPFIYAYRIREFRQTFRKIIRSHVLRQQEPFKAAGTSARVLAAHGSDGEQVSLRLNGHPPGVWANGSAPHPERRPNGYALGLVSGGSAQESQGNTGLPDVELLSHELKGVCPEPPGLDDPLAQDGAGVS
Assay [6] addresses T2, Adenosine receptor A2b (Homo sapiens, UniProt P29275).
T2 sequence (P29275 whole entry): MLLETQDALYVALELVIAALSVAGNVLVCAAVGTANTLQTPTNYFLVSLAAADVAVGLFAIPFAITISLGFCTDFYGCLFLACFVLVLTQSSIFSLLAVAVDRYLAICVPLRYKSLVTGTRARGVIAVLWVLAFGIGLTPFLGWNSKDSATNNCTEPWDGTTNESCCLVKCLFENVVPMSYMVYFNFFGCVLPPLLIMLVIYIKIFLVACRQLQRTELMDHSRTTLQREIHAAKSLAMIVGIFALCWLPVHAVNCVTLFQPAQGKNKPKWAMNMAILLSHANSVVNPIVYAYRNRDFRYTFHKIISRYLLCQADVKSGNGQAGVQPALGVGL
Briefly: Antagonist activity at human A2B receptor expressed in CHO cell membrane assessed as reduction in NECA-[…] level by GloSensor CAMP assay. The class given is cell membranes.

Assay [7] deals with T3, Adenosine receptor A1 (Homo sapiens, UniProt P30542).
T3 sequence (P30542 whole entry): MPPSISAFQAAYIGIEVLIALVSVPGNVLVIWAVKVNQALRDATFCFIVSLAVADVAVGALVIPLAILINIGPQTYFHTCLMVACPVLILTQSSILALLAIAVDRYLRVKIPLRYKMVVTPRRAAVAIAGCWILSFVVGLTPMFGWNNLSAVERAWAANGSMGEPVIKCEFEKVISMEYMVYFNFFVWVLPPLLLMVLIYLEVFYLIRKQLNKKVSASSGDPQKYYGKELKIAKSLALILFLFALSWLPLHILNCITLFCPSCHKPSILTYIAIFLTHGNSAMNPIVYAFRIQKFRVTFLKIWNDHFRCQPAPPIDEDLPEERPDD
Briefly: Displacement of [3H]-CCPA from human A1 receptor stably expressed in CHO cell membranes by radioligand competitive binding assay. Details: species or system Cell membrane.

The target of assay [8] is Carbonic anhydrase 1 (Homo sapiens, UniProt P00915). Briefly: Inhibition of human CA1 incubated for 15 mins by stopped- flow CO2 hydrase assay method.
Carbonic anhydrase 1, sequence (P00915 whole entry): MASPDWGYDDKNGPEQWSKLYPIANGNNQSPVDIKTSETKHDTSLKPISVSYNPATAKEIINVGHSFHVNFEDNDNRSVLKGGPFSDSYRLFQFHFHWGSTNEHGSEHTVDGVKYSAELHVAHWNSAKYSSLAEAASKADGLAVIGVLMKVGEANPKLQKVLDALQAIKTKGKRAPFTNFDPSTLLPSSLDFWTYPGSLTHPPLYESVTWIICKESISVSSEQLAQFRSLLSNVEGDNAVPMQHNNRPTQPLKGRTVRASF

Where only a bound is given, the exact number is not on record here.

Take `Nc1nc(-c2ccc(NC(=O)CCNC(=O)c3cccc(S(N)(=O)=O)c3)cc2)cn2c(=O)n(-c3ccccc3)nc12`: the Ki in assay [1] was > 30000 nM; in assay [2], 341 nM; in assay [3] it was 830 nM; in assay [4] it was 6920 nM; in assay [5], 9.2 nM; in assay [7], 418 nM. In addition, the Ki in assay [8] worked out at 7280 nM. Further, the IC50 in assay [6] is > 30000 nM.
Turning to `Nc1nc(-c2ccc(OCCNCCc3ccc(S(N)(=O)=O)cc3)cc2)cn2c(=O)n(-c3ccccc3)nc12`, the Ki is 7010 nM in assay [1]; 934 nM in assay [2]; 795 nM in assay [3]; 9460 nM in assay [4]; 87.9 nM in assay [5]; 283 nM in assay [7]. For the same compound, the inhibitory constant (Ki) in assay [8] was 973 nM. The IC50 in assay [6] is > 30000 nM.
For `Nc1nc(-c2ccc(OCCNC(=O)c3ccc(S(N)(=O)=O)cc3)cc2)cn2c(=O)n(-c3ccccc3)nc12`, the Ki was 6650 nM in assay [1]; 183 nM in assay [2]; 528 nM in assay [3]; 5950 nM in assay [4]; 6.8 nM in assay [5]; 420 nM in assay [7]. For the same compound, the Ki in assay [8] was found to be 934 nM. For the same compound, the IC50 in assay [6] is > 30000 nM.
